This passage reports IC50, EMSA screening results and inhibition results from patent publication EP3290412A1, “HIV-1 NUCLEOCAPSID INHIBITORS” (Università degli Studi di Siena, priority 2016, dated 2018).

SMILES strings stand for the structures. Where two headings read alike, the source gives them in different places.

In general, IC50 refers to the concentration needed to halve the response being measured. What is called inhibition is the change of the read-out against control, counted positive when it falls. Read a low inhibition as a weak effect.

The test system of assay [1] is HIV-1 reference strain NL4-3. The experiment in a line: MonoCycle assay (TZM-bl cells). Type of assay: cell-based. On the procedure: MonoCycle assay is a cell based assay allowing the evaluation of antiviral activity of HIV-1 inhibitors targeting the early steps of HIV-1 life cycle such as entry, uncoating of viral particles, reverse transcription and integration. The assay consists in the infection of TZM-bl cells (20,000/well) with the HIV-1 reference strain NL4-3 in presence of serial five-fold dilutions of the investigational inhibitors. After 48 hours, cells were lysed adding 40 µl of Glo Lysis Buffer (Promega) to each well for 5 minutes, then 40 µl of Brighy-Glo Luciferase Reagent (Promega) were added to each well for relative luminescence units (RLU) counting using Glo-Max Multi Detection System (Promega). RLU values from each well were elaborated using the GraphPad v5.0 software to calculate the IC50 of each compound.

The target in assay [2] is T1, full length (1-55) HIV-1 NCp7 (Human immunodeficiency virus type 1 group M subtype B, UniProt P12493).
T1 construct: recombinant full length (1-55) HIV-1 NCp7 proteins; made in house
Description: Electromobility Shift Assay (EMSA), competition for ssDNA binding. The conditions noted are these: NCp7 300 nM, M13mp18 ssDNA; positive = >25% inhibition at 100µM. The gist of the method: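 Recombinant NL4-3 NCp7 (300 nM in the pre-mix) was combined with compound in 20 mM Tris-HCl pH 7.4, 2 mM MgCl2, 100 mM NaCl, 1 mM DTT, then M13mp18 ssDNA was added for 25 min at 37 °C. Complexes were run on 1% agarose/0.5x TBE and stained with SybrGold. IC50 is the concentration at which bound ssDNA migrated 50% of the bound–unbound distance (triplicate).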
(A gel shift assay detects complexes by their altered migration in electrophoresis.)

Another assay addresses NC(11-55) (Human immunodeficiency virus type 1, UniProt P12493). Description: NC inhibition assay (NC-induced cTAR DNA destabilization, fluorescence). The assay is classed as biochemical, HIV-1. To be noted: for inhibition at 100 µM: single point screening, positive = >25% inhibition at 100µM. The gist of the method:
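Doubly labelled cTAR (0.1 µM, Alexa488/Dabcyl) pre-complexed with 1 µM Zn-loaded NC(11-55) for 15 min, then compound added for a further 15 min; run at 20 °C in Tris-HCl pH 7.5, 30 mM NaCl, 0.2 mM MgCl2. Fluorescence read at ex 480/em 520 nm. IC50 taken from dose-response fit of % inhibition of NC-induced fluorescence increase.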

[3] abbreviates: Human immunodeficiency virus 1, NL43, TZM-bl, 48 h, read-out: Mono Cycle IC50 nM.
Where [4] appears, read: Human immunodeficiency virus 1, NL43, TZM-bl cells, NL4-3, 48 hours, read-out: Mono Cycle IC50.

Regarding `Cc1cccnc1-c1nc(O)c(O)c(C(=O)N[C@@H](C)C2CCCCC2)n1` [Compound 39, (S)-N-(1-cyclohexylethyl)-5,6-dihydroxy-2-(3-methylpyridin-2-yl)pyrimidine-4-carboxamide], the IC50 was more than 50000 nM in assay [1] (setting [3]) and 27 µM at NC(11-55). For the same compound, in assay [2], the EMSA screening results is “Negative”. Moreover, the inhibition at 100 µM against NC(11-55) was more than 25%.

Turning to `COc1cccc(-c2nc(O)c(O)c(C(=O)N[C@H](C)C3CCCCC3)n2)n1` [Compound 37, (R)-N-(1-cyclohexylethyl)-5,6-dihydroxy-2-(6-methoxypyridin-2-yl)pyrimidine-4-carboxamide], the IC50 in assay [1] (setting [3]) was 6910 nM. For the same compound, in assay [2], the EMSA screening results is “Positive (A compound showing >25% inhibition when tested at 100µM concentration is considered as "positive")”. On NC(11-55), this compound returned an IC50 of 29 µM and an inhibition at 100 µM of more than 25%.

With `COc1ccnc(-c2nc(O)c(O)c(C(=O)NC3CCC(C)(C)CC3)n2)c1` [Compound 77, N-(4,4-dimethylcyclohexyl)-5,6-dihydroxy-2-(4-methoxypyridin-2-yl)pyrimidine-4-carboxamide], the IC50 in assay [1] (setting [3]) stood at 17300 nM. Further, the EMSA screening results in assay [2] was “Positive (A compound showing >25% inhibition when tested at 100µM concentration is considered as "positive")”. At NC(11-55), the IC50 was 23.5 µM and the inhibition at 100 µM was more than 25%.

Consider `C[C@@H](NC(=O)c1nc(-c2ccc(C(=O)OCc3ccccc3)cn2)nc(O)c1O)C1CCCCC1` [Compound 21, benzyl (R)-6-(4-((1-cyclohexylethyl)carbamoyl)-5,6-dihydroxypyrimidin-2-yl)nicotinate], for which the IC50 in assay [1] (setting [3]) was more than 50000 nM. The EMSA screening results in assay [2] was “Positive (A compound showing >25% inhibition when tested at 100µM concentration is considered as "positive")”. On NC(11-55), the half-maximal inhibitory concentration (IC50) was 10 µM and the inhibition at 100 µM is more than 25%.

With `C[C@@H](NC(=O)c1nc(-c2cccc(Cl)n2)nc(O)c1O)C1CCCCC1` [Compound 34, (R)-2-(6-chloropyridin-2-yl)-N-(1-cyclohexylethyl)-5,6-dihydroxypyrimidine-4-carboxamide], the IC50 in assay [1] (setting [3]) was determined as 14500 nM. In assay [2], the EMSA screening results is recorded as “Negative”. Moreover, at NC(11-55), the IC50 was found to be 47.5 µM and the inhibition at 100 µM was more than 25%.

For the compound `CC(OC(=O)c1nc(-c2ccccn2)nc(O)c1O)C1CCCCC1` (stereo not drawn) [Compound 17, 1-cyclohexylethyl 5,6-dihydroxy-2-(pyridin-2-yl)pyrimidine-4-carboxylate], the half-maximal inhibitory concentration (IC50) in assay [1] (setting [3]) is more than 50000 nM. The EMSA screening results in assay [2] is given as “Negative”. In addition, on NC(11-55), the IC50 came to 90 µM and the inhibition at 100 µM was more than 25%.

As to `O=C(OCCCC1CCCCC1)c1nc(-c2ccccn2)nc(O)c1O` [Compound 14, 3-cyclohexylpropyl 5,6-dihydroxy-2-(pyridin-2-yl)pyrimidine-4-carboxylate], the half-inhibitory concentration (IC50) in assay [1] (setting [3]) was more than 50000 nM. Besides, in assay [2], the EMSA screening results was “Negative”. On NC(11-55), half-maximal inhibition (IC50) required 27.5 µM and the inhibition at 100 µM is more than 25%.

`CCNS(=O)(=O)c1ccc(-c2nc(O)c(O)c(C(=O)N[C@H](C)C3CCCCC3)n2)nc1` [Compound 89, (R)-N-(1-cyclohexylethyl)-2-(5-(N-ethylsulfamoyl)pyridin-2-yl)-5,6-dihydroxypyrimidine-4-carboxamide]: the IC50 in assay [1] (setting [3]) is more than 50000 nM. Moreover, the EMSA screening results in assay [2] is given as “Negative”. Also, on NC(11-55), the midpoint of inhibition, the IC50, lay at 28 µM and the inhibition at 100 µM is more than 25%.

In the case of `C[C@@H](NC(=O)c1nc(-c2nccc3ccccc23)nc(O)c1O)C1CCCCC1` [Compound 31, (R)-N-(1-cyclohexylethyl)-5,6-dihydroxy-2-(isoquinolin-1-yl)pyrimidine-4-carboxamide], in assay [1] (setting [3]), the IC50 was more than 50000 nM. For the same compound, the EMSA screening results in assay [2] is “Positive (A compound showing >25% inhibition when tested at 100µM concentration is considered as "positive")”. At NC(11-55), the IC50 was 3.5 µM and the inhibition at 100 µM was more than 25%.

As to `C[C@@H](NC(=O)c1nc(-c2ccc(CN3CCCC3)cn2)nc(O)c1O)C1CCCCC1` [Compound 93, (R)-N-(1-cyclohexylethyl)-5,6-dihydroxy-2-(5-(pyrrolidin-1-ylmethyl)pyridin-2-yl)pyrimidine-4-carboxamide], the results for the IC50 (in assay [1] (setting [3]); at NC(11-55)) were more than 50000 nM and 50 µM, respectively. Besides, the EMSA screening results in assay [2] is “Negative”. At NC(11-55), the inhibition at 100 µM is more than 25%.

Regarding `COc1cc(-c2nc(O)c(O)c(C(=O)N[C@H](C)C3CCCCC3)n2)nc2ccccc12` [Compound 68, N-[(1R)-1-cyclohexylethyl]-2-(4-methoxyquinolin-2-yl)-5,6-bis(oxidanyl)pyrimidine-4-carboxamide], in assay [1] (setting [4]), the IC50 worked out at 44300 nM. Moreover, in assay [2], the EMSA screening results is reported as “Positive (A compound showing >25% inhibition when tested at 100µM concentration is considered as "positive")”. On NC(11-55), this compound came in with an inhibition at 100 µM of more than 25%.

As to `C[C@@H](NC(=O)c1nc(-c2ncccc2C(F)(F)F)nc(O)c1O)C1CCCCC1` [Compound 30, (R)-N-(1-cyclohexylethyl)-5,6-dihydroxy-2-(3-(trifluoromethyl)pyridin-2-yl)pyrimidine-4-carboxamide], the IC50 in assay [1] (setting [4]) is more than 50000 nM. For the same compound, in assay [2], the EMSA screening results is recorded as “Positive (A compound showing >25% inhibition when tested at 100µM concentration is considered as "positive")”. Besides, on NC(11-55), the inhibition at 100 µM was more than 25%.

In the case of `Cc1cccc(-c2nc(O)c(O)c(C(=O)N[C@H](C)C3CCCCC3)n2)n1` [Compound 18, (R)-N-(1-cyclohexylethyl)-5,6-dihydroxy-2-(6-methylpyridin-2-yl)pyrimidine-4-carboxamide], the 50% inhibitory concentration (IC50) is 37300 nM in assay [1] (setting [3]) and 20 µM on NC(11-55). Further, the EMSA screening results in assay [2] was “Positive (A compound showing >25% inhibition when tested at 100µM concentration is considered as "positive")”. The inhibition at 100 µM at NC(11-55) was more than 25%.

For the compound `C[C@@H](NC(=O)c1nc(-c2cccc(C(F)(F)F)n2)nc(O)c1O)C1CCCCC1` [Compound 44, (R)-N-(1-cyclohexylethyl)-5,6-dihydroxy-2-(6-(trifluoromethyl)pyridin-2-yl)pyrimidine-4-carboxamide], in assay [1] (setting [4]), the 50% inhibitory concentration (IC50) is more than 50000 nM. Also, the EMSA screening results in assay [2] is on record as “Positive (A compound showing >25% inhibition when tested at 100µM concentration is considered as "positive")”. Also, the inhibition at 100 µM at NC(11-55) was more than 25%.

`C[C@@H](NC(=O)c1nc(-c2ccc(NC(=O)OC(C)(C)C)cn2)nc(O)c1O)C1CCCCC1` [Compound 61, tert-butyl (R)-(6-(4-((1-cyclohexylethyl)carbamoyl)-5,6-dihydroxypyrimidin-2-yl)pyridin-3-yl)carbamate]: the IC50 in assay [1] (setting [3]) stood at 7180 nM; on NC(11-55) (cTAR DNA 0.1 µM, 1 µM NC(11-55), 20 °C, pH 7.5, read-out: NC inhibition IC50), 17 µM. The EMSA screening results in assay [2] was “Positive (A compound showing >25% inhibition when tested at 100µM concentration is considered as "positive")”. At NC(11-55), the inhibition at 100 µM was more than 25%.

Consider `C[C@@H](NC(=O)c1nc(-c2cc(CCNCc3cccn3C)ccn2)nc(O)c1O)C1CCCCC1` [Compound 91, (R)-N-(1-cyclohexylethyl)-5,6-dihydroxy-2-(4-(2-(((1-methyl-1H-pyrrol-2-yl)methyl)amino)ethyl)pyridin-2-yl)pyrimidine-4-carboxamide], for which the IC50 was found to be 2150 nM in assay [1] (setting [3]) and 12 µM against NC(11-55). For the same compound, the EMSA screening results in assay [2] is reported as “Positive (A compound showing >25% inhibition when tested at 100µM concentration is considered as "positive")”. This compound displayed an inhibition at 100 µM against NC(11-55) of more than 25%.

As to `C[C@@H](NC(=O)c1nc(-c2cc(C(F)(F)F)ccn2)nc(O)c1O)C1CCCCC1` [Compound 27, (R)-N-(1-cyclohexylethyl)-5,6-dihydroxy-2-(4-(trifluoromethyl)pyridin-2-yl)pyrimidine-4-carboxamide], the IC50 in assay [1] (setting [3]) is more than 50000 nM; at NC(11-55) it was 12.5 µM. The EMSA screening results in assay [2] was “Positive (A compound showing >25% inhibition when tested at 100µM concentration is considered as "positive")”. The same compound registered an inhibition at 100 µM against NC(11-55) of more than 25%.

With `C[C@@H](NC(=O)c1nc(-c2ccc(C(F)(F)F)cn2)nc(O)c1O)C1CCCCC1` [Compound 36, (R)-N-(1-cyclohexylethyl)-5,6-dihydroxy-2-(5-(trifluoromethyl)pyridin-2-yl)pyrimidine-4-carboxamide], the IC50 in assay [1] (setting [3]) was found to be 45400 nM. Besides, the EMSA screening results in assay [2] was “Positive (A compound showing >25% inhibition when tested at 100µM concentration is considered as "positive")”. In addition, on NC(11-55), it took 22.5 µM to reach half-maximal inhibition (IC50) and the inhibition at 100 µM was more than 25%.
